Test system: panel of cancer cell lines
Assay: Cell viability (CellTiter-Glo) dose-response across cancer cell line panel; for AMAX: reference of the scale not given here;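 for EC50: after 72 h compound incubation with CellTiter-Glo ATP readout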
Assay type: cell-based, human
Conditions: for EC50: Homo sapiens
In short: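 Dose–response viability screen of a CSN5 inhibitor in over 500 cancer lines. Compound exposure lasted 72 h at 37 °C and 5% CO2, starting 4 h post-seeding. ATP luminescence (CellTiter-Glo) was read, and EC50 was obtained by nonlinear regression of percent inhibition.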

EC50 (59M): 0.631 µM | EC50 (92.1): 0.213 µM | EC50 (639-V): 0.191 µM | EC50 697: 0.373 µM | EC50 (769-P): 0.199 µM | EC50 (786-0, 786-O): 0.373 µM | EC50 (1321-N1, 1321N1): 0.304 µM | EC50 (8505C): 0.271 µM | EC50 (A4/Fuk): 0.34 µM | EC50 (A101D): 0.403 µM | EC50 (A 172, A172): 0.18 µM | EC50 (A204, A-204): 0.267 µM | EC50 (A498, A-498): 0.245 µM | EC50 (A549, A549): 3.6 µM | EC50 (A673, A-673): 0.0881 µM | EC50 (A704, A-704): 0.622 µM | EC50 (A2058, A2058): 0.316 µM | EC50 (A2780, A2780): 0.33 µM | EC50 (A-375, A-375): 0.281 µM | EC50 (ACC-MESO-1, ACC-MESO-1): 1.56 µM | EC50 (AM-38, AM-38): 0.297 µM | EC50 (AML-193): 0.901 µM | EC50 (AN3-CA, AN3 CA): 0.309 µM | EC50 (AU565, AU565): 0.505 µM | EC50 (BC-3C): 1.97 µM | EC50 (BEN): 1.1 µM | EC50 (BFTC-909, BFTC-909): 0.65 µM | EC50 (BHY): 1.87 µM | EC50 (BICR 6): 0.181 µM | EC50 (BICR 16): 0.22 µM | EC50 (BICR 18): 11.5 µM | EC50 (BICR 31): 0.156 µM | EC50 (BT-16, BT-16): 0.098 µM | EC50 (BT-474, BT-474): 0.871 µM | EC50 (BT-549, BT-549): 0.382 µM | EC50 (BXPC-3, BxPC-3): 0.53 µM | EC50 (C3A): > 30 µM | EC50 (C32, C32): 1.14 µM | EC50 (CAKI-1, Caki-1): 0.327 µM | EC50 (CAKI-2, Caki-2): 2.36 µM | EC50 (CAL-12T): 1.21 µM | EC50 (CAL-27, CAL 27): 0.161 µM | EC50 (CAL-29): 0.283 µM | EC50 (CAL-54, CAL-54): 0.772 µM | EC50 (CAL-85-1, CAL-85-1): 0.144 µM | EC50 (CAL-120, CAL-120): 0.154 µM | EC50 (CAL-148, CAL-148): > 30 µM | EC50 (CAMA-1, CAMA-1): 0.0943 µM | EC50 (CAPAN-1, Capan-1): 0.301 µM | EC50 (CAS-1): 14 µM | EC50 (CCRF-HSB-2, CCRF-HSB-2): 0.296 µM | EC50 (CEM/C1, CEMC1): 0.257 µM | EC50 (CFPAC-1, CFPAC-1): 0.703 µM | EC50 (CL-34): 0.0896 µM | EC50 (CMK): 0.138 µM | EC50 (CMK-86, CMK-86): 0.23 µM | EC50 (COLO 201, COLO 201): 0.268 µM | EC50 (COLO 205, COLO 205): 0.268 µM | EC50 (COLO 320, COLO-320): 0.883 µM | EC50 (COLO 699, COLO-699): 0.89 µM | EC50 (COLO 704, COLO-704): 0.384 µM | EC50 (COLO-678, COLO-678): 4.89 µM | EC50 (COLO-679, COLO-679): 0.133 µM | EC50 (COLO-741, COLO 741): 0.13 µM | EC50 (COLO-829, COLO 829): 0.319 µM | EC50 (COR-L23, COR-L23): 1.66 µM | EC50 (COR-L47, COR-L47): 0.0496 µM | EC50 (COR-L105, COR-L105): 0.469 µM | EC50 (COV362, COV362): 0.175 µM | EC50 (COV644): 23.6 µM | EC50 (CW-2, CW-2): 6.31 µM | EC50 (Calu-1, Calu-1): 2.34 µM | EC50 (Calu-6, Calu-6): 0.294 µM | EC50 (ChaGo-K-1, ChaGo-K-1): 0.778 µM | EC50 (Ci-1, CI-1): 0.0282 µM | EC50 (DAN-G): 4.14 µM | EC50 (DB): 0.732 µM | EC50 (DLD-1, DLD-1): 0.641 µM | EC50 (DMS-53, DMS 53): 22.8 µM | EC50 (DMS-153, DMS 153): 0.0429 µM | EC50 (DMS-273, DMS 273): 0.958 µM | EC50 (DND41, DND-41): 0.513 µM | EC50 (DU-4475, DU4475): 0.0994 µM | EC50 (Daoy): 0.24 µM | EC50 (Detroit 562, Detroit 562): 0.478 µM | EC50 (EBC-1, EBC-1): 0.341 µM | EC50 (EFM-19, EFM-19): 1.39 µM | EC50 (EOL1, EOL-1): 0.0653 µM | EC50 (FaDu): 0.231 µM | EC50 (G-401, G-401): 1.55 µM | EC50 (G-402, G-402): 0.811 µM | EC50 (GAMG): 0.373 µM | EC50 (GB-1, GB-1): 0.479 µM | EC50 (GDM-1, GDM-1): 0.188 µM | EC50 (GI-1, GI-1): 0.207 µM | EC50 (GP2d): 0.759 µM | EC50 (Granta-519, GRANTA-519): 0.117 µM | EC50 (H4): 0.229 µM | EC50 (HARA): 0.64 µM | EC50 (HCC15, HCC-15): 0.414 µM | EC50 (HCC44, HCC-44): 0.167 µM | EC50 (HCC78, HCC-78): 0.183 µM | EC50 (HCC95, HCC-95): 0.105 µM | EC50 (HCC827, HCC827): 7.72 µM | EC50 (HCC1143, HCC1143): 1.67 µM | EC50 (HCC1187, HCC1187): 0.348 µM | EC50 (HCC1500, HCC1500): 6.58 µM | EC50 (HCC1588, HCC-1588): 1.37 µM | EC50 (HCC1806, HCC1806): 0.0701 µM | EC50 (HCC1954, HCC1954): 0.417 µM | EC50 (HCC4006, HCC4006): 1.53 µM | EC50 (HCC-56): 2.46 µM | EC50 (HCC-1359): 0.375 µM | EC50 (HCC-1833): 2.35 µM | EC50 (HCT-15, HCT-15): 0.934 µM | EC50 (HD-MY-Z): 0.124 µM | EC50 (HEC-50B): 0.961 µM | EC50 (HEC-151): 0.225 µM
SMILES: NS(=O)(=O)OC[C@@H]1C[C@@H](n2ccc3c(N[C@H]4CCc5ccccc54)ncnc32)C[C@@H]1O [MLN4924]
AMAX (A4/Fuk): -96.9287 | AMAX (A101D): -92.8172 | AMAX (A549): -65.6237 | AMAX (A-704): -78.0973 | AMAX (AM-38): -93.2889 | AMAX (AU565): -66.5254 | AMAX (AsPC-1): -50.1525 | AMAX (BFTC-909): -84.6841 | AMAX (BHY): -77.3535 | AMAX (BICR 6): -87.6265 | AMAX (BICR 16): -96.2639 | AMAX (C32): -75.1217 | AMAX (COLO 201): -80.4634 | AMAX (Caki-1): -69.6053 | AMAX (FaDu): -85.8426 | AMAX (GP2d): -76.2986 | AMAX (HARA): -86.2104 | AMAX (HCC1143): -80.6145 | AMAX (HCC-15): -95.7573 | AMAX (HD-MY-Z): -88.7975 | AMAX (HEC-151): -95.1252 | AMAX (HEL): -97.9201 | AMAX (HLC-1): -88.3206 | AMAX (HLF): -88.8149 | AMAX (HSC-4): -89.1597 | AMAX (Hep3B): -41.8233 | EC50 (HCC70, HCC70): 0.39 µM

Source: PMC5078989, “Targeted inhibition of the COP9 signalosome for treatment of cancer” (Nature Communications, 2016)
